# Test results as given in PubChem BioAssay (NCI).
#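 Following 48 hours of exposure in 96-well plates, responses at five concentrations were used to interpolate endpoints linearly. TGI: concentration producing complete growth inhibition.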
# Legend:
# Assay in all cases: NCI-60 cell line screen, 48 h
# SK-MEL-5 melanoma = test system: SK-MEL-5 melanoma
# HCC-2998 colon = test system: HCC-2998 colon
# M14 melanoma = test system: M14 melanoma
# BT-549 breast = test system: BT-549 breast
# MOLT-4 leukemia = test system: MOLT-4 leukemia
# ACHN renal = test system: ACHN renal
# HT29 colon = test system: HT29 colon
# NCI-H226 lung = test system: NCI-H226 lung
# IGROV1 ovarian = test system: IGROV1 ovarian
# HS 578T breast = test system: HS 578T breast
# HCT-15 colon = test system: HCT-15 colon
# K-562 leukemia = test system: K-562 leukemia
# UACC-257 melanoma = test system: UACC-257 melanoma
# SNB-75 CNS = test system: SNB-75 CNS
# OVCAR-5 ovarian = test system: OVCAR-5 ovarian
# RPMI-8226 leukemia = test system: RPMI-8226 leukemia
# A498 renal = test system: A498 renal
# NCI-H23 lung = test system: NCI-H23 lung
# MDA-MB-231 breast = test system: MDA-MB-231 breast
# MALME-3M melanoma = test system: MALME-3M melanoma
# OVCAR-3 ovarian = test system: OVCAR-3 ovarian
# UACC-62 melanoma = test system: UACC-62 melanoma
# A549 NSCLC = test system: A549 NSCLC
# RXF 393 renal = test system: RXF 393 renal
# KM12 colon = test system: KM12 colon
# MDA-N = test system: MDA-N
# SF-539 CNS = test system: SF-539 CNS
# SK-MEL-28 melanoma = test system: SK-MEL-28 melanoma
# DU-145 prostate = test system: DU-145 prostate
# LOX IMVI melanoma = test system: LOX IMVI melanoma
# 786-0 renal = test system: 786-0 renal
# NCI/ADR-RES ovarian = test system: NCI/ADR-RES ovarian
# NCI-H522 lung = test system: NCI-H522 lung
# SK-MEL-2 melanoma = test system: SK-MEL-2 melanoma
# SW-620 colon = test system: SW-620 colon
# SK-OV-3 ovarian = test system: SK-OV-3 ovarian
# MCF7 breast = test system: MCF7 breast
# SF-295 CNS = test system: SF-295 CNS
# SNB-19 CNS = test system: SNB-19 CNS
# HOP-92 NSCLC = test system: HOP-92 NSCLC
# SF-268 CNS = test system: SF-268 CNS
# NCI-H460 lung = test system: NCI-H460 lung
# T-47D breast = test system: T-47D breast
# HL-60(TB) leukemia = test system: HL-60(TB) leukemia
# MDA-MB-435 = test system: MDA-MB-435
# SR leukemia = test system: SR leukemia
# PC-3 prostate = test system: PC-3 prostate
# COLO 205 colon = test system: COLO 205 colon
# UO-31 renal = test system: UO-31 renal
# OVCAR-8 ovarian = test system: OVCAR-8 ovarian
# U251 CNS = test system: U251 CNS
# HCT-116 colon = test system: HCT-116 colon
# CCRF-CEM leukemia = test system: CCRF-CEM leukemia
# TK-10 renal = test system: TK-10 renal
# EKVX NSCLC = test system: EKVX NSCLC
# CAKI-1 renal = test system: CAKI-1 renal
# SN12C renal = test system: SN12C renal
# HOP-62 NSCLC = test system: HOP-62 NSCLC
# OVCAR-4 ovarian = test system: OVCAR-4 ovarian
structure (smiles),measurement,setting,value
CCCC1(N)CC(OC)OC(C)C1O (stereo unspecified),TGI,SK-MEL-5 melanoma,> 100 µM
same,TGI,HCC-2998 colon,> 100 µM
same,TGI,M14 melanoma,> 100 µM
same,TGI,BT-549 breast,> 100 µM
same,TGI,MOLT-4 leukemia,> 100 µM
same,TGI,ACHN renal,> 100 µM
same,TGI,HT29 colon,> 100 µM
same,TGI,NCI-H226 lung,> 100 µM
same,TGI,IGROV1 ovarian,> 100 µM
same,TGI,HS 578T breast,> 100 µM
same,TGI,HCT-15 colon,> 100 µM
same,TGI,K-562 leukemia,> 100 µM
same,TGI,UACC-257 melanoma,> 100 µM
same,TGI,SNB-75 CNS,> 100 µM
same,TGI,OVCAR-5 ovarian,> 100 µM
same,TGI,RPMI-8226 leukemia,> 100 µM
same,TGI,A498 renal,> 100 µM
same,TGI,NCI-H23 lung,> 100 µM
same,TGI,MDA-MB-231 breast,> 100 µM
same,TGI,MALME-3M melanoma,> 100 µM
same,TGI,OVCAR-3 ovarian,> 100 µM
same,TGI,UACC-62 melanoma,> 100 µM
same,TGI,A549 NSCLC,> 100 µM
same,TGI,RXF 393 renal,> 100 µM
same,TGI,KM12 colon,> 100 µM
same,TGI,MDA-N,> 100 µM
same,TGI,SF-539 CNS,> 100 µM
same,TGI,SK-MEL-28 melanoma,> 100 µM
same,TGI,DU-145 prostate,> 100 µM
same,TGI,LOX IMVI melanoma,> 100 µM
same,TGI,786-0 renal,> 100 µM
same,TGI,NCI/ADR-RES ovarian,> 100 µM
same,TGI,NCI-H522 lung,> 100 µM
same,TGI,SK-MEL-2 melanoma,> 100 µM
same,TGI,SW-620 colon,> 100 µM
same,TGI,SK-OV-3 ovarian,> 100 µM
same,TGI,MCF7 breast,> 100 µM
same,TGI,SF-295 CNS,> 100 µM
same,TGI,SNB-19 CNS,> 100 µM
same,TGI,HOP-92 NSCLC,> 100 µM
same,TGI,SF-268 CNS,> 100 µM
same,TGI,NCI-H460 lung,> 100 µM
same,TGI,T-47D breast,> 100 µM
same,TGI,HL-60(TB) leukemia,> 100 µM
same,TGI,MDA-MB-435,> 100 µM
same,TGI,SR leukemia,> 100 µM
same,TGI,PC-3 prostate,> 100 µM
same,TGI,COLO 205 colon,> 100 µM
same,TGI,UO-31 renal,> 100 µM
same,TGI,OVCAR-8 ovarian,> 100 µM
same,TGI,U251 CNS,> 100 µM
same,TGI,HCT-116 colon,> 100 µM
same,TGI,CCRF-CEM leukemia,> 100 µM
same,TGI,TK-10 renal,> 100 µM
same,TGI,EKVX NSCLC,> 100 µM
same,TGI,CAKI-1 renal,> 100 µM
same,TGI,SN12C renal,> 100 µM
same,TGI,HOP-62 NSCLC,> 100 µM
C=CCC(CNC(=O)OCc1ccccc1)OC(=O)OCc1ccccc1 (stereo unspecified),TGI,SK-MEL-5 melanoma,56 µM
same,TGI,HCC-2998 colon,> 100 µM
same,TGI,M14 melanoma,> 100 µM
same,TGI,BT-549 breast,> 100 µM
same,TGI,MOLT-4 leukemia,> 100 µM
same,TGI,ACHN renal,> 100 µM
same,TGI,HT29 colon,> 100 µM
same,TGI,NCI-H226 lung,> 100 µM
same,TGI,IGROV1 ovarian,> 100 µM
same,TGI,HS 578T breast,> 100 µM
same,TGI,HCT-15 colon,> 100 µM
same,TGI,K-562 leukemia,> 100 µM
same,TGI,UACC-257 melanoma,> 100 µM
same,TGI,SNB-75 CNS,> 100 µM
same,TGI,OVCAR-5 ovarian,> 100 µM
same,TGI,RPMI-8226 leukemia,68.1 µM
same,TGI,A498 renal,> 100 µM
same,TGI,NCI-H23 lung,> 100 µM
same,TGI,MDA-MB-231 breast,> 100 µM
same,TGI,OVCAR-3 ovarian,> 100 µM
same,TGI,UACC-62 melanoma,> 100 µM
same,TGI,A549 NSCLC,> 100 µM
same,TGI,RXF 393 renal,> 100 µM
same,TGI,KM12 colon,> 100 µM
same,TGI,MDA-N,> 100 µM
same,TGI,SF-539 CNS,> 100 µM
same,TGI,SK-MEL-28 melanoma,> 100 µM
same,TGI,DU-145 prostate,> 100 µM
same,TGI,OVCAR-4 ovarian,> 100 µM
same,TGI,LOX IMVI melanoma,> 100 µM
same,TGI,786-0 renal,> 100 µM
same,TGI,NCI/ADR-RES ovarian,> 100 µM
same,TGI,NCI-H522 lung,> 100 µM
same,TGI,SK-MEL-2 melanoma,> 100 µM
same,TGI,SW-620 colon,> 100 µM
same,TGI,SK-OV-3 ovarian,> 100 µM
same,TGI,MCF7 breast,> 100 µM
same,TGI,SF-295 CNS,> 100 µM
same,TGI,SNB-19 CNS,> 100 µM
same,TGI,HOP-92 NSCLC,> 100 µM
same,TGI,SF-268 CNS,> 100 µM
same,TGI,NCI-H460 lung,> 100 µM
same,TGI,T-47D breast,> 100 µM
same,TGI,HL-60(TB) leukemia,> 100 µM
same,TGI,MDA-MB-435,> 100 µM
same,TGI,SR leukemia,62 µM
same,TGI,PC-3 prostate,> 100 µM
same,TGI,COLO 205 colon,> 100 µM
same,TGI,UO-31 renal,> 100 µM
same,TGI,OVCAR-8 ovarian,> 100 µM
same,TGI,U251 CNS,> 100 µM
same,TGI,HCT-116 colon,> 100 µM
same,TGI,CCRF-CEM leukemia,> 100 µM
same,TGI,TK-10 renal,> 100 µM
same,TGI,EKVX NSCLC,> 100 µM
same,TGI,CAKI-1 renal,> 100 µM
same,TGI,SN12C renal,> 100 µM
same,TGI,HOP-62 NSCLC,> 100 µM
